# Data taken from patent US20090118361A1, “SUPPRESSOR OF EXPRESSION OF MCP-1, AND AMELIORATING AGENT FOR INFLAMMATORY DISEASE, PHARMACEUTICAL, SUPPLEMENT, FOOD, BEVERAGE OR FOOD ADDITIVE USING THE SUPPRESSOR” (ARKRAY, INC., priority 2006, published 2009).
# Tests used:
# MCP-1 [1] = test: Suppression of MCP-1 mRNA expression in differentiated 3T3-L1 adipocytes (Light Cycler quantitative determination, ratio to 36B4); type: cell-based, mouse; details: 3T3-L1, eight days after start of differentiation induction, MCP-1/36B4 ratio relative to non-treated control = 100%, mean ± standard error
# Procedure: (§1) First, two types of culture media indicated below, i.e. a differentiation induction culture medium and a differentiation enhancing culture medium, were prepared.
# (§2) (Composition: 0.25 μM DEX, 0.5 mM MIX, 10 μg/mL insulin/10% FBS-containing DMEM)
# (§3) First, 55 mL of FBS (fetal bovine serum (manufactured by GIBCO)) was added to 500 mL of DMEM (manufactured by SIGMA), and thereby 10% FBS-containing DMEM was prepared. Thereafter, 138.75 μL of 1 mM DEX (dexamethasone)-containing DMSO (manufactured by Nacalai Tesque, Inc.) and 555 μL of 10 mg/mL insulin-containing PBS (manufactured by SIGMA) were added thereto. The insulin-containing PBS was prepared as follows. That is, 1N HCl was added to PBS beforehand, so that PBS acidified to a degree that allowed insulin to dissolve therein, and thereafter insulin was dissolved therein. MIX (3-Isobutyl-1-methylxanthine) (manufactured by Nacalai Tesque, Inc.) was added to a required amount of the culture medium immediately before use so as to be 0.5 mM. Thus a differentiation induction culture medium was prepared. Since MIX was very difficult to dissolve, it first was dissolved in a small amount of 99.5% ethanol. which was then added to 10% FBS-containing DMEM. In this case, the final concentration of 99.5% ethanol in the differentiation induction culture medium was adjusted so as not to exceed 1%.
# (§4) (Composition: 5 ug/mL insulin/10% FBS-containing DMEM/auraptene)
# First, 277.5 μL of the aforementioned 10 mg/mL insulin-containing PBS was added to 555 ml, of 10% FBS-containing DMEM. Furthermore, auraptene (AUR) with various concentrations was added to this mixture and thereby differentiation enhancing culture media were prepared. […]
# Subsequently, frozen cultured preadipocyte 3T3-L1 was thawed and was plated on the culture medium placed in a 100-mm dish. […] Subsequently, using a Light/Cycler®, the levels of mRNA expression of MCP-1 and 36B4, […], were measured. […]
# MCP-1 [2] = test: MCP-1 protein secretion into conditioned medium of differentiated 3T3-L1 adipocytes (ELISA); type: cell-based, mouse; details: 3T3-L1 conditioned medium, eight days after start of differentiation induction, relative to non-treated control = 100, mean ± standard error
# Procedure: as §1, §2, §3, §4
# First, 277.5 μL of the aforementioned 10 mg/mL insulin-containing PBS was added to 555 ml, of 10% FBS-containing DMEM. Furthermore, auraptene (AUR) with various concentrations was added to this mixture and thereby differentiation enhancing culture media were prepared. In this case, a cultured cell obtained by using auraptene-free differentiation enhancing culture medium containing DMSO added instead of auraptene was employed as a non-treated control (control).
# Subsequently, frozen cultured preadipocyte 3T3-L1 was thawed and was plated on the culture medium placed in a 100-mm dish. This was cultured until 3T3-L1 reached about 80% confluent. One dish of 3T3-L1 that had reached about 80% confluent was subcultured on a 6-well plate. Subsequently, after 3T3-L1 subcultured on the 6-well plate further was cultured until it reached 100% confluent, the culture medium was replaced by a differentiation induction culture medium and thereby differentiation was induced. Subsequently, 48 hours after replacement by a differentiation induction culture medium, the culture medium was replaced by a differentiation enhancing culture medium. Thereafter, replacement of the differentiation enhancing culture medium was carried out every three days. Using Sepasol RNA I Super (trade name, manufactured by Nacalai Tesque, Inc.), mRNA was extracted from the cultured cells eight days after the start of differentiation induction. Subsequently, using a Light/Cycler®, the levels of mRNA expression of MCP-1 and 36B4, […], were measured. The measurement of the levels of mRNA expression is described below in detail.
# Furthermore, the culture medium obtained eight days after the start of differentiation induction was collected in an amount of 1 mL from each well. Using an ELISA kit (manufactured by BD Bioscience, trade name: BD OptEIA Set Mouse MCP-1), the amount of MCP-1 (protein abundance) in the conditioned medium was measured according to the manual of the kit.
# The relative ratios calculated, with the measured value of the non-treated control (control) with respect to the measured value of the secretion amount of MCP-1 by ELISA being taken as 100, are indicated in Table 2 below and in the graph shown in FIG. 2. The auraptene concentrations indicated in Table 2 below and FIG. 2 are final concentrations in the differentiation enhancing culture media. In FIG. 2, AUR denotes auraptene, and Ctrl indicates the non-treated control (control). […]
smiles,measurement,setting,value
"CC(C)=CCC/C(C)=C/COc1ccc2ccc(=O)oc2c1 [Example 1, auraptene]",mRNA concentration of MCP-1,MCP-1 [1]; auraptene 5 μM in differentiation enhancing medium,99.8 ± 8.0%
same,mRNA concentration of MCP-1,MCP-1 [1]; auraptene 20 μM in differentiation enhancing medium,62.3 ± 5.8%
same,mRNA concentration of MCP-1,MCP-1 [1]; auraptene 50 μM in differentiation enhancing medium,28.3 ± 2.9%
same,Protein secretion amount of MCP-1,MCP-1 [2]; auraptene 1 μM,94.6 ± 4.9%
same,Protein secretion amount of MCP-1,MCP-1 [2]; auraptene 5 μM,98.6 ± 2.5%
same,Protein secretion amount of MCP-1,MCP-1 [2]; auraptene 10 μM,92.1 ± 4.6%
same,Protein secretion amount of MCP-1,MCP-1 [2]; auraptene 20 μM,72.3 ± 2.2%
same,Protein secretion amount of MCP-1,MCP-1 [2]; auraptene 30 μM,63.9 ± 2.5%
same,Protein secretion amount of MCP-1,MCP-1 [2]; auraptene 50 μM,48.5 ± 2.1%
